Assay results taken from patent publication US12377098B2, “Compositions and methods for the treatment of alopecia” (Follea International, priority 2023, dated 2025).

Test system: scalp SULT1A1 enzyme
Conditions: oral, 20 subjects

Question: For `O=C([O-])O.[Na+]` [sodium bicarbonate], which “subjects in whom the scalp SULT1A1 enzyme was induced” value (dosages exceeding 1,000 mg q.d.) is on record?
Answer: 18%

Question: And the “induction of the scalp SULT1A1 enzyme” value (dosages less than 500 mg q.d.)?
Answer: did induce
